Data from patent US20260250318A1, “COMPOSITIONS AND METHODS FOR CROSSING THE BLOOD BRAIN BARRIER” (VOYAGER THERAPEUTICS, INC., priority 2022, published 2026).

Experiments:
Details in all cases: synthetic library passage 3, intravenous, relative to wild-type AAV9
[1] = test system: brain, spinal cord, and DRG of the NHPs; assay: NGS fold enrichment of synthetic library (passage 3) in NHPs, first cross-species screen; assay type: in vivo, cynomolgus macaques (Macaca fascicularis)
Method in brief: (§1)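 Passage-3 synthetic capsid library given intravenously […] to NHPs (2-4 years) and BALB/c or C57Bl/6 mice (n=3, 6-8 weeks). After e.g. 28 days, tissue RNA was RT-PCR amplified and NGS-sequenced; values are fold enrichment of each variant relative to wild-type AAV9.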

brain [2] = assay: NGS fold enrichment of synthetic library (passage 3) in BALB/c mice, first cross-species screen; assay type: in vivo
Method in brief: as §1

brain [3] = assay: NGS fold enrichment of synthetic library (passage 3) in C57Bl/6 mice, first cross-species screen; assay type: in vivo
Method in brief: as §1

[4] = RNA from spinal cord of NHPs, NGS
[5] = RNA from brain of BALB/c mice, NGS
[6] = RNA from brain of C57Bl/6 mice, NGS

Sequence | Fold enrichment over AAV9 in the brain of NHPs ([1]; RNA NGS, brain of NHPs) | Fold enrichment over AAV9 in the spinal cord of NHPs ([1]; RNA NGS, spinal cord of NHPs) | Fold enrichment over AAV9 in the brain of Mice (BALB/c) (brain [2]; RNA NGS, brain of BALB/c mice) | Fold enrichment over AAV9 in the brain of Mice (C57Bl/6) (brain [3]; RNA NGS, brain of C57Bl/6 mice) | Fold enrichment over AAV9 in the brain of NHPs ([1]; RNA from brain of NHPs, NGS) | Fold enrichment over AAV9 in the spinal cord of NHPs [1, 4] | Fold enrichment over AAV9 in the brain of Mice (BALB/c) (brain [2]; [5]) | Fold enrichment over AAV9 in the brain of Mice (C57Bl/6) (brain [3]; [6])
GNVTTQKSGQNQQT | 1.122 fold | 2.546 fold | 0.922 fold | 1.215 fold | – | – | – | –
GNYLHQASGQNQQT | 1.635 fold | 1.454 fold | 0.181 fold | 0.816 fold | – | – | – | –
GPAQHGTSGQNQQT | – | – | – | – | 1.407 fold | 0.866 fold | 0.615 fold | 1.030 fold
GPASLPISGQNQQT | – | – | – | – | 1.386 fold | 9.008 fold | 0.155 fold | 0.312 fold
GPDRIGSSGQNQQT | – | – | – | – | 1.308 fold | 0.426 fold | 0.342 fold | 0.654 fold
GPFGMPSSGQNQQT | 2.260 fold | 2.700 fold | 0.560 fold | 0.727 fold | – | – | – | –
GPGLGSHSGQNQQT | 1.906 fold | 14.563 fold | 1.195 fold | 0.880 fold | – | – | – | –
GPGLPNHSGQNQQT | 2.486 fold | 1.992 fold | 0.659 fold | 1.197 fold | – | – | – | –
GPGLSGHSGQNQQT | 1.571 fold | 1.603 fold | 1.297 fold | 1.154 fold | – | – | – | –
GPGSAHSSGQNQQT | 1.785 fold | 4.392 fold | 0.872 fold | 1.099 fold | – | – | – | –
GPLVNASSGQNQQT | 1.434 fold | 5.239 fold | 0.343 fold | 0.831 fold | – | – | – | –
GPNSYPVSGQKQQT | – | – | – | – | 1.381 fold | 4.040 fold | 0.834 fold | 0.736 fold
GPPQHMTSGQNQQT | 1.457 fold | 1.547 fold | 0.677 fold | 0.509 fold | – | – | – | –
GPRLSDQSGQNQQT | 1.511 fold | 0.364 fold | 0.579 fold | 0.640 fold | – | – | – | –
GPTNGRSSGQNQQT | 2.034 fold | 8.903 fold | 1.308 fold | 0.936 fold | – | – | – | –
GQIVQNPSGQNQQT | 3.133 fold | 0.406 fold | 0.635 fold | 1.446 fold | – | – | – | –
GQLGSVGSGQDQQT | – | – | – | – | 1.196 fold | 0.000 fold | 0.437 fold | 1.020 fold
GQLVTFTSGQNQQT | – | – | – | – | 1.331 fold | 11.282 fold | 0.294 fold | 0.819 fold
GRAPTNLSGQNQQT | 1.118 fold | 0.687 fold | 0.169 fold | 0.757 fold | – | – | – | –
GRAVMDHSGQNQQT | 2.408 fold | 3.209 fold | 0.283 fold | 0.728 fold | – | – | – | –
